This assay concerns the target T1, human Nav1.8/b3 (Homo sapiens, UniProt Q9Y5Y9).
T1 construct: expressed in transfected cells; host or cells: CHO
Put plainly: Compound Profiling Human NaV1.8/β3 Cell Line—SyncroPatch384PE Assay (automated patch clamp, stably transfected CHO cells). The class given is cell-based. The conditions noted are these: Nav1.8/b3 CHO cells. Background: In patch-clamp work, channel activity is measured electrically.

Where [1] appears, read: P1 (IC50, resting state block), P1 measurement, resting state block, holding potential −120 mV, fourth set of compounds.
Where [2] appears, read: P2 (IC50, inactivated state block), P2 measurement, inactivated state block, inactivation step −35 mV 10 sec, fourth set of compounds.
[3] abbreviates: P1 (IC50, resting state block), P1 measurement, resting state block, holding potential −120 mV, first set of compounds.
The mark [4] stands for this setting: P2 (IC50, inactivated state block), P2 measurement, inactivated state block, inactivation step −35 mV 10 sec, first set of compounds.
Setting [5] is: P1 (IC50, resting state block), P1 measurement, resting state block, holding potential −120 mV, third set of compounds.
[6] abbreviates: P2 (IC50, inactivated state block), P2 measurement, inactivated state block, inactivation step −35 mV 10 sec, third set of compounds.
Where [7] appears, read: P1 (IC50, resting state block), P1 measurement, resting state block, holding potential −120 mV, second set of compounds.
[8] abbreviates: P2 (IC50, inactivated state block), P2 measurement, inactivated state block, inactivation step −35 mV 10 sec, second set of compounds.

Where a name gives a salt, the structure may show the parent alone. Read-outs that look alike come from different tables or passages of the source.

T1 sequence (Q9Y5Y9 whole entry): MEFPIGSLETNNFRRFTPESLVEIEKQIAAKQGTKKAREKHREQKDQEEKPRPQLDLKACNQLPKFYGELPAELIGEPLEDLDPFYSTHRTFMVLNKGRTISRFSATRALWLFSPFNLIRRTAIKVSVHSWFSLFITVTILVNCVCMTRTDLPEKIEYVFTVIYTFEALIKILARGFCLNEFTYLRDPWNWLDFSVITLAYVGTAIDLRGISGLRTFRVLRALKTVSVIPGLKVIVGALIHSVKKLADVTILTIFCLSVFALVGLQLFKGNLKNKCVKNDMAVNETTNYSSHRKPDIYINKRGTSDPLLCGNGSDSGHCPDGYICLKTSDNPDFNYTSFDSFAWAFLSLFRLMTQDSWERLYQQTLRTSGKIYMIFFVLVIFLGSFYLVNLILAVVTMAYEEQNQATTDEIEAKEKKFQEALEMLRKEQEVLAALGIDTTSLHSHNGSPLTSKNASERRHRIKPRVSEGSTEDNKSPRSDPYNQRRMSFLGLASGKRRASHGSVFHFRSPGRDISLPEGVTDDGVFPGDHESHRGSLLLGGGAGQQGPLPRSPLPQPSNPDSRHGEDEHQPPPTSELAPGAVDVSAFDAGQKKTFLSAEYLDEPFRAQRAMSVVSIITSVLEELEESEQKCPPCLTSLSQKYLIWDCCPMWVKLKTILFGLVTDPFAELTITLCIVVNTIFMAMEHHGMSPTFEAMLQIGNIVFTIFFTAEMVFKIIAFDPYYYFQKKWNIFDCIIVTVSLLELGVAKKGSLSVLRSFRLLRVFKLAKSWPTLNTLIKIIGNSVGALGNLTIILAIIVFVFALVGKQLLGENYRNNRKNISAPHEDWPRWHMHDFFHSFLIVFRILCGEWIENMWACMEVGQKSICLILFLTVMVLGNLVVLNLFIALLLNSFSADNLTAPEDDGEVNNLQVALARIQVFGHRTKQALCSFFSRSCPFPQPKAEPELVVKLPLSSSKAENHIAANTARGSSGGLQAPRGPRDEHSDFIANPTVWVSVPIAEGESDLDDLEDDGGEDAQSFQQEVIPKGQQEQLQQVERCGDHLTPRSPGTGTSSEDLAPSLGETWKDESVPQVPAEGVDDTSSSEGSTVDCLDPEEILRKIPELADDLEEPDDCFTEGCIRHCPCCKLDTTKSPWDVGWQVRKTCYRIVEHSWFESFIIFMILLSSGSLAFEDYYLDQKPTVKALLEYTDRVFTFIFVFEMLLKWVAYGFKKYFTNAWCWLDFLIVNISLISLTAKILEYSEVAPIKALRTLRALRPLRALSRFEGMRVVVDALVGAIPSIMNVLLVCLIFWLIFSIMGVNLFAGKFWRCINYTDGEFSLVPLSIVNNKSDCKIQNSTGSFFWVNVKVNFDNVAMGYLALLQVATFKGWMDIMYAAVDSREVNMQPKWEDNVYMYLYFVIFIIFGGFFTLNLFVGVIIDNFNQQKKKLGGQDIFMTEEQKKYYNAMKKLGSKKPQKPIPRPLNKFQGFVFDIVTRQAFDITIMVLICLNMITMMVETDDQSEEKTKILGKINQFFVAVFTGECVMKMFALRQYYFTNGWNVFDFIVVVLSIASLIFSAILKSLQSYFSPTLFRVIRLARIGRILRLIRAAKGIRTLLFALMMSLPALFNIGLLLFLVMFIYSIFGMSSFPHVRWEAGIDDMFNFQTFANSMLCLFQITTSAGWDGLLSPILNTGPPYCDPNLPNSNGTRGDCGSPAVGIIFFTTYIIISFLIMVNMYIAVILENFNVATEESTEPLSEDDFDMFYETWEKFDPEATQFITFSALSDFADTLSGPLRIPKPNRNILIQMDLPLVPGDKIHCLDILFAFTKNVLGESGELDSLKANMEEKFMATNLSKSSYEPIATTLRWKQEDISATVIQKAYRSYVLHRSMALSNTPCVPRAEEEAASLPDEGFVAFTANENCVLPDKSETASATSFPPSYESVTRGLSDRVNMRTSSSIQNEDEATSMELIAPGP
T1 sequence (Q9NY72 23-215 partner): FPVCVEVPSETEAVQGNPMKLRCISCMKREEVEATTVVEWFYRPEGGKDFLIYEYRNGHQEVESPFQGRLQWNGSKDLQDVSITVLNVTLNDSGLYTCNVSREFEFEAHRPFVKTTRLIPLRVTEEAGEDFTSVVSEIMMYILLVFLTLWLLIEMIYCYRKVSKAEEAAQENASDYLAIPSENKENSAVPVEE

As usually defined, the IC50 is the concentration that inhibits the measured activity by half. In the case of `Cc1nc(F)ccc1Oc1ncc(C(F)(F)F)c(C)c1C(=O)Nc1cccc([S@@](C)(=O)=NC(=O)CO)c1` [Example 12D, (R)-2-((6-fluoro-2-methylpyridin-3-yl)oxy)-N-(3-(N-(2-hydroxyacetyl)-S-methylsulfonimidoyl)phenyl)-4-methyl-5-(trifluoromethyl)nicotinamide], the IC50 by setting is: under setting [1], less than 5 nM; under setting [2], less than 5 nM.
On to `Cc1nc(F)ccc1Oc1ncc(C(F)(F)F)c(C)c1C(=O)Nc1ccc(F)c(S(C)(=O)=O)c1` [Example 101C], for which the half-inhibitory concentration (IC50) by setting is: (P1 measurement, resting state block, holding potential −120 mV, third set of compounds, read-out: P1 (IC50, resting state block)) 5 to 50 nM; (P2 measurement, inactivated state block, inactivation step −35 mV 10 sec, third set of compounds, read-out: P2 (IC50, inactivated state block)) 5 to 50 nM.
As for `Cc1nc(F)ccc1Oc1cc(C2CC2)c(C(F)(F)F)cc1C(=O)Nc1ccc(F)c([S@](C)(=N)=O)c1` [Example 52A], the IC50 is less than 5 nM under setting [3] and less than 5 nM under setting [4].
For `Cc1nc(F)ccc1Oc1ncc(C2CCC2)c(C)c1C(=O)Nc1ccnc([S@](C)(=N)=O)c1` [Example 98C], the 50% inhibitory concentration (IC50) runs as follows: under setting [5], 5 to 50 nM; under setting [6], 5 to 50 nM.
With `Cc1nc(F)ccc1Oc1ncc(C(F)(F)F)c(C)c1C(=O)Nc1cccc([S@@](C)(=O)=NC(=O)[C@@H]2CCCO2)c1` [Example 7D, 2-((6-fluoro-2-methylpyridin-3-yl)oxy)-4-methyl-N-(3-((R)—S-methyl-N—((S)-tetrahydrofuran-2-carbonyl)sulfonimidoyl)phenyl)-5-(trifluoromethyl)nicotinamide], the IC50 by setting is: under setting [1], less than 5 nM; under setting [2], less than 5 nM.
For the compound `Cc1nc(F)ccc1Oc1cc(C(F)(F)F)ccc1C(=O)Nc1cccc([S@@](C)(=O)=NC(=O)CN)c1` [Example 14B, (R)-2-((6-fluoro-2-methylpyridin-3-yl)oxy)-N-(3-(N-glycyl-S-methylsulfonimidoyl)phenyl)-4-(trifluoromethyl)benzamide], the half-maximal inhibitory concentration (IC50) under setting [7] lay in the range of 5 to 50 nM and the IC50 under setting [8] fell in the range of 5 to 50 nM.
For the compound `Cc1nc(F)ccc1Oc1nc2ccccc2cc1C(=O)Nc1ccnc([S@](C)(=N)=O)c1` [Example 93C], the half-maximal inhibitory concentration (IC50) fell in the range of 100 to 200 nM under setting [5] and 100 to 200 nM under setting [6].
For `Cc1nc(F)ccc1Oc1cc(C(F)(F)F)ccc1C(=O)Nc1cccc([S@@](C)(=O)=NC(=O)[C@@H]2CCCN2)c1` [Example 8B, (S)—N—((R)-(3-(2-((6-fluoro-2-methylpyridin-3-yl)oxy)-4-(trifluoromethyl)benzamido)phenyl)(methyl)(oxo)-λ^6-sulfaneylidene)pyrrolidine-2-carboxamide formate], the half-maximal inhibitory concentration (IC50) was less than 5 nM (P1 measurement, resting state block, holding potential −120 mV, second set of compounds, read-out: P1 (IC50, resting state block)) and less than 5 nM (P2 measurement, inactivated state block, inactivation step −35 mV 10 sec, second set of compounds, read-out: P2 (IC50, inactivated state block)).
`CNCC(=O)N=[S@](C)(=O)c1cccc(NC(=O)c2c(Oc3ccc(F)nc3C)nnc(C(F)(F)F)c2C)c1` [Example 25D, (R)-3-((6-fluoro-2-methylpyridin-3-yl)oxy)-5-methyl-N-(3-(S-methyl-N-(methylglycyl)sulfonimidoyl)phenyl)-6-(trifluoromethyl)pyridazine-4-carboxamide]: the IC50 is less than 5 nM under setting [1] and less than 5 nM under setting [2].
On to `Cc1nc(F)ccc1Oc1nc(C(F)(F)F)c(Cl)c(C)c1C(=O)Nc1ccnc([S@](C)(=N)=O)c1` [Example 100C], for which the IC50 under setting [5] lay in the range of 5 to 50 nM and the IC50 under setting [6] fell in the range of 5 to 50 nM.
`Cc1nc(F)ccc1Oc1cc(C(F)(F)F)cc(F)c1C(=O)Nc1ccnc([S@](C)(=N)=O)c1` [Example 40A]: the IC50 runs as follows: under setting [3], 5 to 50 nM; under setting [4], 5 to 50 nM.
`Cc1nc(F)ccc1Oc1ncc(C(F)(F)F)c(C)c1C(=O)Nc1cccc([S@@](C)(=O)=NC(=O)[C@H]2CCCN2)c1` [Example 23D, N-(3-((R)—N-(D-prolyl)-S-methylsulfonimidoyl)phenyl)-2-((6-fluoro-2-methylpyridin-3-yl)oxy)-4-methyl-5-(trifluoromethyl)nicotinamide formate]: the IC50 is, setting by setting: under setting [1], less than 5 nM; under setting [2], less than 5 nM.
`Cc1nc(F)ccc1Oc1ncc(C(F)(F)F)c(C)c1C(=O)Nc1cccc([S@@](C)(=O)=NCCN(C)C)c1` [Example 91C]: the IC50 runs as follows: under setting [5], less than 5 nM; under setting [6], less than 5 nM.
On to `Cc1nc(F)ccc1Oc1ncc(-c2ccc(C#N)cc2)c(C)c1C(=O)Nc1cccc([S@](C)(=N)=O)c1` [Example 3C, (R)-5-(4-cyanophenyl)-2-((6-fluoro-2-methylpyridin-3-yl)oxy)-4-methyl-N-(3-(S-methylsulfonimidoyl)phenyl)nicotinamide], for which the half-maximal inhibitory concentration (IC50) is, setting by setting: under setting [5], 5 to 50 nM; under setting [6], 5 to 50 nM.
`Cc1nc(F)ccc1Oc1cc(C(F)(F)F)c(Cl)cc1C(=O)Nc1cccc([S@@](C)(=O)=NC(=O)C2(N)CCC2)c1` [Example 6B, (R)—N-(3-(N-(1-aminocyclobutane-1-carbonyl)-S-methylsulfonimidoyl)phenyl)-5-chloro-2-((6-fluoro-2-methylpyridin-3-yl)oxy)-4-(trifluoromethyl)benzamide]: the half-maximal inhibitory concentration (IC50) is less than 5 nM under setting [7] and less than 5 nM under setting [8].
Turning to `CNCC(=O)N=[S@](C)(=O)c1cccc(NC(=O)c2cc(Cl)c(C(F)(F)F)cc2Oc2ccc(F)nc2C)c1` [Example 29B], the half-inhibitory concentration (IC50) is, setting by setting: under setting [7], less than 5 nM; under setting [8], less than 5 nM.
Take `Cc1nc(F)ccc1Oc1ncc(C(F)(F)F)c(C)c1C(=O)Nc1cccc([S@@](C)(=O)=NCC(C)(C)N)c1` [Example 90C]: the IC50 is less than 5 nM under setting [5] and less than 5 nM under setting [6].
With `Cc1nc(F)ccc1Oc1cc(C(F)(F)F)c(Cl)cc1C(=O)Nc1ccnc(C(N)=O)c1` [Example 72A], the IC50 was less than 5 nM under setting [3] and less than 5 nM under setting [4].
With `COc1cc(C#N)ccc1Oc1ncc(-c2ccc(C(F)F)cc2)c(C)c1C(=O)Nc1ccnc([S@](C)(=N)=O)c1` [Example 17C, (R)-2-(4-cyano-2-methoxyphenoxy)-5-(4-(difluoromethyl)phenyl)-4-methyl-N-(2-(S-methylsulfonimidoyl)pyridin-4-yl)nicotinamide], the concentration for half-maximal inhibition (IC50) by setting is: under setting [5], greater than 200 nM; under setting [6], greater than 200 nM.
As for `Cc1nc(F)ccc1Oc1ncc(C(C)C)c(C)c1C(=O)Nc1cccc([S@](C)(=N)=O)c1` [Example 104C], the IC50 by setting is: under setting [5], 50 to 100 nM; under setting [6], 50 to 100 nM.
Consider `Cc1nc(F)ccc1Oc1ncc(C(F)(F)F)c(C)c1C(=O)Nc1cccc([S@@](C)(=O)=NC(=O)CN2CC(F)(F)C2)c1` [Example 29D, (R)—N-(3-(N-(2-(3,3-difluoroazetidin-1-yl)acetyl)-S-methylsulfonimidoyl)phenyl)-2-((6-fluoro-2-methylpyridin-3-yl)oxy)-4-methyl-5-(trifluoromethyl)nicotinamide], for which the half-inhibitory concentration (IC50) runs as follows: under setting [1], less than 5 nM; under setting [2], less than 5 nM.
Take `Cc1nc(F)ccc1Oc1nc(C2CC2)c(C(F)(F)F)c(C)c1C(=O)Nc1ccnc([S@](C)(=N)=O)c1` [Example 106C]: the IC50 is less than 5 nM under setting [5] and less than 5 nM under setting [6].
`Cc1nc(F)ccc1Oc1ccc(C(F)(F)F)c(F)c1C(=O)Nc1cccc([S@@](C)(=O)=NC(=O)CN)c1` [Example 16B, (R)-2-fluoro-6-((6-fluoro-2-methylpyridin-3-yl)oxy)-N-(3-(N-glycyl-S-methylsulfonimidoyl)phenyl)-3-(trifluoromethyl)benzamide]: the IC50 was less than 5 nM under setting [7] and less than 5 nM under setting [8].
Take `Cc1nc(F)ccc1Oc1cc(C(F)(F)F)c(Cl)cc1C(=O)Nc1cccc([S@@](C)(=O)=NC(=O)[C@@H](C)O)c1` [Example 1B, 5-chloro-2-((6-fluoro-2-methylpyridin-3-yl)oxy)-N-(3-((R)—N—((R)-2-hydroxypropanoyl)-S-methylsulfonimidoyl)phenyl)-4-(trifluoromethyl)benzamide]: the IC50 runs as follows: under setting [7], less than 5 nM; under setting [8], less than 5 nM.
As for `Cc1nc(F)ccc1Oc1cc(C(F)(F)F)c(Cl)c(F)c1C(=O)NC12CC(C(N)=O)(C1)C2` [Example 47A], the 50% inhibitory concentration (IC50) runs as follows: under setting [3], greater than 200 nM; under setting [4], greater than 200 nM.
Consider `Cc1nc(F)ccc1Oc1cc(C(F)(F)F)c(Cl)cc1C(=O)Nc1cccc([S@@](C)(=O)=NC(=O)CO)c1` [Example 2B, (R)-5-chloro-2-((6-fluoro-2-methylpyridin-3-yl)oxy)-N-(3-(N-(2-hydroxyacetyl)-S-methylsulfonimidoyl)phenyl)-4-(trifluoromethyl)benzamide], for which the half-inhibitory concentration (IC50) was less than 5 nM under setting [7] and less than 5 nM under setting [8].
For the compound `Cc1nc(F)ccc1Oc1ccc(C(F)(F)F)c(F)c1C(=O)Nc1cccc([S@@](C)(=O)=NC(=O)[C@H](C)O)c1` [Example 18B, 2-fluoro-6-((6-fluoro-2-methylpyridin-3-yl)oxy)-N-(3-((R)—N—((S)-2-hydroxypropanoyl)-S-methylsulfonimidoyl)phenyl)-3-(trifluoromethyl)benzamide], the IC50 under setting [7] was less than 5 nM and the IC50 under setting [8] was less than 5 nM.
As to `Cc1nc(F)ccc1Oc1ncc(-c2ccc3c(c2)OCCO3)c(C)c1C(=O)Nc1cccc([S@](C)(=N)=O)c1` [Example 4C, (R)-5-(2,3-dihydrobenzo[b][1,4]dioxin-6-yl)-2-((6-fluoro-2-methylpyridin-3-yl)oxy)-4-methyl-N-(3-(S-methylsulfonimidoyl)phenyl)nicotinamide], the IC50 was 5 to 50 nM under setting [5] and 5 to 50 nM under setting [6].

The values are drawn from US20260356804A1, “SODIUM CHANNEL BLOCKING COMPOUNDS, DERIVATIVES THEREOF, AND METHODS OF THEIR USE” (LATIGO BIOTHERAPEUTICS, INC., priority 2022, published 2026).
